Reference: US9402848B2, “Method for treating pain syndrome and other disorders” (VM Therapeutics LLC, priority 2008, dated 2016)

How the values were obtained:
[1] = tested on: Carrageenan-induced pain in rat animal model of hyperalgesia; assay: Carrageenan-induced pain in rat animal model of hyperalgesia; format: in vivo; details: FIG. 2 and FIG. 3
[2] = tested on: Formalin induced pain in rat animal models of hyperalgesia; assay: Rat Formalin Paw Test; format: in vivo; details: FIG. 1
Procedure: Rat Formalin Paw Test (in Vivo Assay): Compounds were assessed for their ability to inhibit the behavioral response evoked by an injection of formalin (50 μl of 5% formalin). A metal band was affixed to the left hind paw of male Holtzman rats (225-250 g, Harlan Industries, Indianapolis Ind.) and each rat was conditioned to the band for 60 min within a plastic cylinder (15 cm diameter). Rats were dosed with either vehicle, positive control compound or a test compound either before (local) or after (systemic) formalin challenge. For local administration, compounds were prepared in either a 1:1.5 vehicle of saline (in mL) and (D)- or (L)-Tartaric acid (in mg), or a 1:1:6 vehicle of DMA (N,N-Dimethylacetamide), Tween 80 and saline, and injected […] into the dorsal surface of the right hind paw of the rat 60 min prior to formalin. The number of flinches was counted continuously for 60 min using an automated nociception analyzer (UCSD Anesthesiology Research, San Diego, Calif.). Statistical significance was determined by comparing the total flinches detected in the early (0-10 min, Phase I) and late (11-60 min) phase with an unpaired t-test. […]

Compound: Cc1nc2ccccn2c(=O)c1CCN1CCC(C(=O)c2ccc(F)cc2)CC1 [Compound 10, 3-(2-{4-[(4-fluorophenyl)carbonyl]piperidin-1-yl}ethyl)-2-methyl-4H-pyrido[1,2-a]pyrimidin-4-one]
- reduction of Carrageenan-induced pain [1]: reduction of Carrageenan-induced pain
- reduction of Formalin induced pain [2]: reduction of Formalin induced pain
